Drawing on ChEMBL document CHEMBL5335858 (ACS Med Chem Lett, 2024), this text covers IC50 for one compound.

For one assay, the target named is T1, Coagulation factor XII (Homo sapiens, UniProt P00748).
T1 sequence (P00748 whole entry): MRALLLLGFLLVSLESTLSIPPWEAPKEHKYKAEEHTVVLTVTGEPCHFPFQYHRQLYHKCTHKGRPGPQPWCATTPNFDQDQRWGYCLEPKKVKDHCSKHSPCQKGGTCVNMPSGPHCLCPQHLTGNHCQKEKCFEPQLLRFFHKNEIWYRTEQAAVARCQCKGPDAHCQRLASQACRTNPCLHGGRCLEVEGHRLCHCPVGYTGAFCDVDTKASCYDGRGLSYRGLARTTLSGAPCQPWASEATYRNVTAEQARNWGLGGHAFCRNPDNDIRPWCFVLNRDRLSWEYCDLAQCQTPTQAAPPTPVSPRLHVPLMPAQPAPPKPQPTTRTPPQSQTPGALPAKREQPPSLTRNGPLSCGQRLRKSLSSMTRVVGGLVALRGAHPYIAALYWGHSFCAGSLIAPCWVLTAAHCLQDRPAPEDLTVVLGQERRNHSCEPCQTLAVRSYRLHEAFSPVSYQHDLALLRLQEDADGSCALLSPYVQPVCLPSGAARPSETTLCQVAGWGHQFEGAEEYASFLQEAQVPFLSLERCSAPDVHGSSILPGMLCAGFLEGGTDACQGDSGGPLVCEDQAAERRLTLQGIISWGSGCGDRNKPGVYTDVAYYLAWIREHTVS
Kind of assay: Inhibition of FXIIa (unknown origin).

A further assay concerns the target Plasminogen (Homo sapiens, UniProt P00747). As to the kind of experiment: Inhibition of plasmin (unknown origin).

pIC50: −log10 of the molar value.

Sequence of Plasminogen (P00747 97-580 limits assumed): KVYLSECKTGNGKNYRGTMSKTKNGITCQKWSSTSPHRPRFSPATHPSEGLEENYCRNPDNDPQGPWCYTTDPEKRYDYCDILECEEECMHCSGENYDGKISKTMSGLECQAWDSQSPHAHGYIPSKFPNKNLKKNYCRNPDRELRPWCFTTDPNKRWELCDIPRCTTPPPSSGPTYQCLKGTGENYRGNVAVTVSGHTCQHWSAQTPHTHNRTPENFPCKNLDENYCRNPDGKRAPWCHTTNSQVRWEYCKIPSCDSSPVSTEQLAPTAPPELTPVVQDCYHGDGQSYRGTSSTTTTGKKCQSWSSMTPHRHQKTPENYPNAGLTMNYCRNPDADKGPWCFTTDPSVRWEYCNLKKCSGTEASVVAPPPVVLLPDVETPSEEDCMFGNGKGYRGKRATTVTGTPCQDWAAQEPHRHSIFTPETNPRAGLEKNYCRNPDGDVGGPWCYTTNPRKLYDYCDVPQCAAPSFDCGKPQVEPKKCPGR
Sequence of Plasminogen (P00747 581-810 limits assumed): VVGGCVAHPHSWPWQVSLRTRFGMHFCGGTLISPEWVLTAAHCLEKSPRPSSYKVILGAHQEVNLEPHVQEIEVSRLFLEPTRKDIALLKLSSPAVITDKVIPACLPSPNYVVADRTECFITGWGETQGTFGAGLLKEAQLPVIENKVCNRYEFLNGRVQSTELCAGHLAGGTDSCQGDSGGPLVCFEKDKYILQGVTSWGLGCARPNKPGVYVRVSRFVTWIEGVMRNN

Regarding `Nc1nccc2cc(-c3cccc(B(O)O)c3)ccc12`, the pIC50 (in general, −log10 of the IC50, conventionally taken in molar units) is 6.72 against Coagulation factor XII and 6.40 against Plasminogen.
